Species on record: Rattus norvegicus
Assay: Open TG-GATES - Regimen: Single
Format: toxicity, organism-based, Sprague-Dawley
Set-up: regimen Single, gender Male, age 6 weeks
Conditions: in vivo, po, 300 mg/kg, route gavage, dose level High; for APTT / Bas / Eos / Fbg / Hb / Ht / Lym / MCH / MCHC / MCV / Mono / Neu / PT / Plat / RBC / Ret / WBC: tissue Blood; for KIDNEY_L / KIDNEY_R / KIDNEY_TOTAL: tissue Kidney; for LIVER: tissue Liver; for A/G / ALP / ALT / AST / BUN / CRE / Ca / Cl / DBIL / GLC / IP / K / LDH / Na / PL / RALB / TBIL / TC / TG / TP / gamma-GTP: tissue Plasma

## NC(=O)N/N=C/c1ccc([N+](=O)[O-])o1 [NITROFURAZONE]
3 h
  TERMINAL_BW: 181.2 g
  APTT: 16.7 s
  Bas: 0%
  Eos: 0.6%
  Fbg: 230.6 mg/dL
  Hb: 12.3 g/dL
  Ht: 38.2%
  Lym: 70.4%
  MCH: 21.7 pg
  MCHC: 32.3%
  MCV: 67 fL
  Mono: 4.6%
  Neu: 23.6%
  PT: 14.9 s
  Plat: 114.6 x10_4/uL
  RBC: 569.8 x10_4/ul
  Ret: 10.8%
  WBC: 73.1 x10_2/uL
  KIDNEY_L: 0.8 g
  KIDNEY_R: 0.8 g
  KIDNEY_TOTAL: 1.6 g
  LIVER: 7.5 g
  A/G: 0.9
  ALP: 1634 IU/L
  ALT: 47 IU/L
  AST: 81.6 IU/L
  BUN: 11.8 mg/dL
  CRE: 0.2 mg/dL
  Ca: 11.1 mg/dL
  Cl: 105.2 meq/L
  DBIL: 0.002 mg/dL
  GLC: 181.6 mg/dL
  IP: 8.9 mg/dL
  K: 3.9 meq/L
  LDH: 47.8 IU/L
  Na: 142 meq/L
  PL: 135.8 mg/dL
  RALB: 2.4 g/dL
  TBIL: 0.056 mg/dL
  TC: 78 mg/dL
  TG: 29.4 mg/dL
  TP: 5.2 g/dL
  gamma-GTP: 1.6 IU/L
6 h
  TERMINAL_BW: 181.5 g
  APTT: 15.7 s
  Bas: 0%
  Eos: 1%
  Fbg: 265 mg/dL
  Hb: 12.7 g/dL
  Ht: 39.5%
  Lym: 71.2%
  MCH: 21.5 pg
  MCHC: 32.1%
  MCV: 67 fL
  Mono: 4%
  Neu: 23.4%
  PT: 14.6 s
  Plat: 115.7 x10_4/uL
  RBC: 589.4 x10_4/ul
  Ret: 10.7%
  WBC: 70.2 x10_2/uL
  KIDNEY_L: 0.8 g
  KIDNEY_R: 0.8 g
  KIDNEY_TOTAL: 1.6 g
  LIVER: 7.6 g
  A/G: 0.9
  ALP: 1281.4 IU/L
  ALT: 44 IU/L
  AST: 77 IU/L
  BUN: 9.2 mg/dL
  CRE: 0.2 mg/dL
  Ca: 11 mg/dL
  Cl: 105.4 meq/L
  DBIL: 0.006 mg/dL
  GLC: 171 mg/dL
  IP: 9 mg/dL
  K: 3.7 meq/L
  LDH: 47.6 IU/L
  Na: 142.2 meq/L
  PL: 149 mg/dL
  RALB: 2.5 g/dL
  TBIL: 0.066 mg/dL
  TC: 84.4 mg/dL
  TG: 24.4 mg/dL
  TP: 5.4 g/dL
  gamma-GTP: 1.4 IU/L
9 h
  TERMINAL_BW: 181 g
  APTT: 15.4 s
  Bas: 0%
  Eos: 1%
  Fbg: 282.4 mg/dL
  Hb: 12.4 g/dL
  Ht: 38.2%
  Lym: 64.4%
  MCH: 21.8 pg
  MCHC: 32.3%
  MCV: 67.4 fL
  Mono: 3%
  Neu: 30.4%
  PT: 14.5 s
  Plat: 120.7 x10_4/uL
  RBC: 567.2 x10_4/ul
  Ret: 10.7%
  WBC: 63.1 x10_2/uL
  KIDNEY_L: 0.8 g
  KIDNEY_R: 0.8 g
  KIDNEY_TOTAL: 1.7 g
  LIVER: 7.5 g
  A/G: 0.9
  ALP: 1242 IU/L
  ALT: 39.2 IU/L
  AST: 79 IU/L
  BUN: 10.4 mg/dL
  CRE: 0.1 mg/dL
  Ca: 10.8 mg/dL
  Cl: 103.8 meq/L
  DBIL: 0.006 mg/dL
  GLC: 196 mg/dL
  IP: 10.6 mg/dL
  K: 3.6 meq/L
  LDH: 69 IU/L
  Na: 141 meq/L
  PL: 135.2 mg/dL
  RALB: 2.4 g/dL
  TBIL: 0.062 mg/dL
  TC: 78.8 mg/dL
  TG: 23.2 mg/dL
  TP: 5.2 g/dL
  gamma-GTP: 1.4 IU/L
24 h
  TERMINAL_BW: 167.8 g
  APTT: 16.1 s
  Bas: 0%
  Eos: 0.5%
  Fbg: 368.8 mg/dL
  Hb: 14.1 g/dL
  Ht: 42.9%
  Lym: 69%
  MCH: 21.6 pg
  MCHC: 32.6%
  MCV: 66 fL
  Mono: 3.2%
  Neu: 26.5%
  PT: 15.8 s
  Plat: 112.2 x10_4/uL
  RBC: 651.8 x10_4/ul
  Ret: 8.6%
  WBC: 68.9 x10_2/uL
  KIDNEY_L: 0.8 g
  KIDNEY_R: 0.8 g
  KIDNEY_TOTAL: 1.6 g
  LIVER: 7 g
  A/G: 0.9
  ALP: 1162.2 IU/L
  ALT: 186 IU/L
  AST: 88 IU/L
  BUN: 15 mg/dL
  CRE: 0.2 mg/dL
  Ca: 10.6 mg/dL
  Cl: 105.8 meq/L
  DBIL: 0.0125 mg/dL
  GLC: 174.8 mg/dL
  IP: 9.7 mg/dL
  K: 3.4 meq/L
  LDH: 78.8 IU/L
  Na: 142.8 meq/L
  PL: 131.2 mg/dL
  RALB: 2.4 g/dL
  TBIL: 0.0825 mg/dL
  TC: 83.8 mg/dL
  TG: 39.8 mg/dL
  TP: 5.3 g/dL
  gamma-GTP: 0.8 IU/L

— ChEMBL document CHEMBL3885861, “Open TG-GATES”
